{"source": "patent EP0623675A1", "about": "“Altered affinity polypeptides of metal chelate binding antibodies” (HYBRITECH INCORPORATED, priority 1992, dated 1994)", "key": {"[1]": {"test_system": "monoclonal antibody CHA255", "assay": "Antibody CHA255 binding assay (Centrifree ultrafiltration of labeled chelate)", "design": "species or system murine", "conditions": "radiolabeled chelate 5 nM, antibody 133 nM, PBS pH 7.4, 15 minutes at room temperature", "description": "As indicated, the monoclonal antibody CHA255 is specific for the In(III)-benzyl EDTA complex. The affinity and characterization have been described previously by Reardon et al. in Nature 316:265 (1985). Binding assays were performed to verify the identity of the haptens designated as DB-I to DB-X and DDB-I to DDB-III. […] For the ⁹⁰Yttrium (III) hapten chelate, in particular, CHA255 binding required the presence of the Indiumbenzyl-EDTA moiety as provided in the compounds of the invention. The labeled DB and DDB hapten chelates were combined with antibody CHA255 in PBS (10 mM sodium phosphate, 150 mM sodium chloride, pH 7.4) containing 44 µg/mL of human serum albumin and 0.05% Triton-X-100 detergent. Concentrations of the radiolabeled hapten chelating agent and antibody were 5 nM and 133 nM, respectively. The mixture was vortexed and allowed to stand at room temperature for 15 minutes, after which it was transferred to an Amicon Centrifree™ device, with a NMW limit of 30,000, and centrifuged to separate antibody-bound chelate from free hapten chelate. The species bound to the antibody was retained by the membrane and the free chelate flowed through the membrane into the filtrate. The extent of antibody-hapten chelate binding was then determined."}, "[2]": {"test_system": "CHA255 Fab' variant clone 3.1.1 (heavy chain CDR H1/H3 mutagenesis, Fig. 3B)", "assay": "Scatchard analysis of phage expressed altered CHA255 Fab' with InEOTUBE", "format": "binding, murine", "conditions": "compared with native CHA255 Fab' (synthesized and phage expressed); crude periplasm Fab', about 10 nM; cold InEOTUBE 2.43 nM to 0.082 nM", "description": "(§1) Free Fab' was expressed and isolated from the periplasmic space of the non-suppressor strain MK30-3 as previously described (International Patent Publication No. WO 92/06204). The concentration of antibody in periplasm preparations was estimated by comparing the ELISA signal generated by aliquots of periplasm of mutant clones to a standard curve using purified CHA255 Fab'. Data points for the Scatchard plots were prepared by incubating antibody (100 µl, approximately 10 nM) diluted in 1X PBS, 1% BSA as crude periplasm fraction with dilutions of cold InEOTUBE (2.43 nM to 0.082 nM) in 1X PBS, 1% BSA hapten spiked with ¹¹¹InEOTUBE as a tracer for […]. This assay is described in greater detail in Example 3, below. The sample was centrifuged at 6,000 rpm for 10 minutes in an Amicon Centrifree™ micro-concentrator (Amicon, Grace Co., Danvers, MA), 10,000 MW cutoff, to separate free hapten from hapten bound to Fab'. Total and free counts were determined and the slope of a plot of the ratio of bound hapten to free hapten versus the concentration of bound hapten was calculated for affinity constant (Ka).\n(§2) The following were added to a 96 well microtiter plate, in triplicate: • a. 25µl EOTUBE-¹¹¹In-ground state in at 4.40pg/µl; • b. 25µl EOTUBE-ground state in at serial dilutions of the 0.40ng/µl and 0.36ng/µl made above. Eleven dilutions each plus a zero giving 24 points with a range of 10ng/well down to 4.40pg/well plus a zero. Dilute with RPMI containing 10% horse serum; • c. 25µl RPMI containing 10% horse serum; • d. 25µl antibody of interest. (concentration determined by sensitivity assay); and • e. 20µl sheep anti-mouse IgG coupled to sepharose beads (same as used in sensitivity curve assay).\n(§3) The plate was incubated overnight on a rotator at room temperature. The contents of wells were aspirated onto glass-fiber filter paper, cut out and counted. Molar bound vs. bound/free were graphed. The linear regression of the part of the curve that is a straight line was determined. Ka was the negative of the slope."}, "[3]": {"test_system": "CHA255 Fab' variant clone 3.2.1 (heavy chain CDR H1/H3 mutagenesis, Fig. 3B)", "assay": "Scatchard analysis of phage expressed altered CHA255 Fab' with InEOTUBE", "format": "binding, murine", "conditions": "compared with native phage expressed CHA255 Fab'; crude periplasm Fab', about 10 nM; cold InEOTUBE 2.43 nM to 0.082 nM", "description": "as §1, §2, §3"}, "[4]": {"test_system": "CHA255 Fab' variant clone 1.1.1 (heavy chain CDR H1/H3 mutagenesis, Fig. 3B)", "assay": "Scatchard analysis of phage expressed altered CHA255 Fab' with InEOTUBE", "format": "binding, murine", "conditions": "compared with native CHA255 Fab' (synthesized and phage expressed); crude periplasm Fab', about 10 nM; cold InEOTUBE 2.43 nM to 0.082 nM", "description": "as §1, §2, §3"}, "[5]": {"test_system": "CHA255 Fab' variant clone 4.2.1 (heavy chain CDR H1/H3 mutagenesis, Fig. 3B)", "assay": "Scatchard analysis of phage expressed altered CHA255 Fab' with InEOTUBE", "format": "binding, murine", "conditions": "compared with native CHA255 Fab' (synthesized and phage expressed); crude periplasm Fab', about 10 nM; cold InEOTUBE 2.43 nM to 0.082 nM", "description": "as §1, §2, §3"}, "[6]": {"test_system": "CHA255 Fab' variant clone 3.7.1 (heavy chain CDR H1/H3 mutagenesis, Fig. 3B)", "assay": "Scatchard analysis of phage expressed altered CHA255 Fab' with InEOTUBE", "format": "binding, murine", "conditions": "compared with native CHA255 Fab' (synthesized and phage expressed); crude periplasm Fab', about 10 nM; cold InEOTUBE 2.43 nM to 0.082 nM", "description": "as §1, §2, §3"}}, "data": [{"substance": "diethylenetriaminepentaacetic acid [⁹⁰Yttrium (III) DTPA]", "values": [{"measurement": "antibody-hapten chelate binding", "setting": "[1]", "value": "neither ⁹⁰Yttrium (III) or ¹¹¹Indium (III) DTPA, alone, bound"}]}, {"substance": "4-[N'[2-hydroxyethyl]-thioureido]benzyl EDTA [InEOTUBE]", "values": [{"measurement": "binding affinity (affinity constant Ka for InEOTUBE)", "setting": "[2]", "value": "approximately equivalent"}, {"measurement": "binding affinity (affinity constant Ka for InEOTUBE)", "setting": "[3]", "value": "approximately one order of magnitude less than the native phage expressed Fab'"}, {"measurement": "binding affinity (affinity constant Ka for InEOTUBE)", "setting": "[4]", "value": "approximately equivalent"}, {"measurement": "binding affinity (affinity constant Ka for InEOTUBE)", "setting": "[5]", "value": "approximately equivalent"}, {"measurement": "binding affinity (affinity constant Ka for InEOTUBE)", "setting": "[6]", "value": "approximately equivalent"}]}]}
